Patent US20110028401A1, “CRIPTO BLOCKING MOLECULES AND THERAPEUTIC USES THEREOF” (CONSIGLIO NAZIONALE DELLE RICERCHE, priority 2009, published 2011)
pIC50: −log10 of the molar value.

Experiments:
Cripto/ALK-4 interaction = molecular target: T1, Cripto/ALK-4 interaction (Mus musculus, UniProt P51865); experiment: ELISA-based competition assay of Cripto/ALK-4 interaction; format: binding
T1 construct: the displacement of soluble recombinant Cripto from coated ALK-4 by the peptide pools was evaluated
T1 sequence (P51865 18-156 limits assumed): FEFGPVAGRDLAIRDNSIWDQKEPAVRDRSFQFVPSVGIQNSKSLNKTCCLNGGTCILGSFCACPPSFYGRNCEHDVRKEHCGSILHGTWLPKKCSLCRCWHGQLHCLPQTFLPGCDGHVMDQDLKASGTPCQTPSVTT
Experimental: To improve the overall solubility of the resulting mixtures, D-Glutamic (D-Glu), corresponding to building block 4 (Table S1) was initially chosen as the common, N-terminal residue. The total complexity of the library was therefore of 30^2=900 different peptides. In the first step of, the deconvolution process, the peptide pools were tested with a molar excess of 30000-fold (calculated for each single peptide) over Cripto (8.6×10^−10 M; FIG. 2. S1). Once identified an active pool(s), a dose-dependent inhibition using 200-, 500-, 1000-, 5000-, 12500 and 30000 fold excess was performed to confirm the inhibitory property (FIG. 3. S2). The first active pool selected was that labelled as 4-23-X (X indicated random positions), where “23” identified the amino acid L-Cysteine(S-benzyl) [L-Cys(Bzl)] (FIG. 3. S2). […] To finally investigate the N-terminal position, where D-Glu was initially arbitrarily placed, 30 single peptides labelled as B-23-23 were synthesized and submitted to the final screening (FIG. 5. S4 (a)). […]
The screening was performed by an ELISA (Enzime-Linked Immunosorbent Assay) assay. […] Finally, the plate was developed with o-phenylendiammine peroxidase substrate (Sigma-Aldrich) and the absorbance was read at 490 nm on a microplate reader (Biorad Benchmark). […]

Mouse ESC = experiment: In vitro dopamine and DOPAC levels by HPLC after KCl; format: cell-based; settings: 14 days in vitro
Experimental: Dopamine release and turnover was determined in vitro using reverse phase high performance liquid chromatography (HPLC). Mouse ESC were differentiated in a 12 well plate according to the methodology depicted in FIG. 7(a), in the presence of either the Control peptide of Cripto BP. After 14 days in vitro, media was replaced with 200 ul of N2 media supplemented with 56 mM KCl for 30 min. The media was then collected and stabilized with 20 ul of buffer containing 0.4 M perchloric acid containing 7.9 mM sodium metabisulphate and 1.34 mM disodium EDTA. On the day of analysis the samples were centrifuged and the supernatant transferred to HPLC vials and placed in an autosampler for injection onto the HPLC. The HPLC consisted of a LC-20AT pump (Shimadzu), SIL-20A Autosampler (Shimadzu) and C18 reverse phase column (Bio-Rad, Hercules, USA). Detection was via a 3 mm VT-03 flow cell with glassy carbon working electrode (Antec Leyden) and Decade II Electrochemical Detector (Antec Leyden). The mobile phase consisted of 17% v/v methanol in purified deionized water containing 70 mM KH2PO4, 0.5 mM EDTA and 8.0 mM sulfonic acid, pH 3.0 and was run at a flow rate of 0.5 ml/min. DA turnover was expressed as the concentration of DOPAC to DA [DOPAC/DA]. Analysis was performed on triplicate wells on three independent differentiation experiments.

[1] = 56 mM KCl 30 min, compared to Control peptide

C[S+]([O-])CCC(N)C(=O)N[C@@H](CSCc1ccccc1)C(=O)N[C@@H](CSCc1ccccc1)C(=O)N[C@@H](CCCCNC(=O)[C@H](CSCc1ccccc1)NC(=O)[C@H](CSCc1ccccc1)NC(=O)[C@@H](N)CC[S+](C)[O-])C(=O)N[C@@H](CCCCNC(=O)[C@H](CCCCNC(=O)[C@H](CSCc1ccccc1)NC(=O)[C@H](CSCc1ccccc1)NC(=O)[C@@H](N)CC[S+](C)[O-])NC(=O)[C@H](CSCc1ccccc1)NC(=O)[C@H](CSCc1ccccc1)NC(=O)[C@@H](N)CC[S+](C)[O-])C(=O)NCC(=O)O (some centres unmarked) [Cripto BP]
inhibitory activity in final library screening (Cripto/ALK-4 interaction; 30 single peptides B-23-23, 500- to 4000-fold excess, confirmed with HPLC purified molecule): optimal inhibitory activity
pIC50 (Cripto/ALK-4 interaction; estimated, ELISA competition, FIG. 1b, read-out: IC50 for blocking the interaction of Cripto and ALK-4): 6.40
KCl-evoked release of DOPAC (Mouse ESC; [1]): significantly increases
KCl-evoked release of dopamine (Mouse ESC; [1]): significantly increases
dopamine turnover (ratio of DOPAC to DA) (Mouse ESC): able to utilize DA
